In patent US20240408047A1, “HYPOXIA INDUCIBLE FACTOR-2(ALPHA) INHIBITORS FOR THE TREATMENT OF BLADDER CANCER” (NIKANG THERAPEUTICS, INC., priority 2021, published 2024):

What was measured:
[1] = tested on: RT112 xenograft model; assay: Anti-tumor effect in mouse bladder cancer xenograft model RT112; assay type: in vivo, Balb/c Nude mouse; conditions: 20 mg/kg bid, 17-30 days
Protocol: (§1) Compound 1 was formulated with 0.5% methylcellulose. 4˜10×10^6 tumor cells in PBS and Corning® Matrigel (11 in volume) were inoculated subcutaneously at right flank for each Balb/c Nude mouse at 6-7 weeks of age for tumor development. Once tumors were 100-200 mm^3 in size, the tumor bearing mice were randomly grouped into 2 groups (n=8) and treatment started with vehicle bid and Compound 1 at 20 mg/kg bid, respectively, for 17-30 days. Tumor sizes were measured twice weekly in two dimensions using a caliper and the volumes were expressed in mm^3 using the formula V=0.5×a×b^2 where a and b were the long and short diameters of the tumor, respectively.

[2] = tested on: RT4 xenograft model; assay: Anti-tumor effect in mouse bladder cancer xenograft model RT4; assay type: in vivo, Balb/c Nude mouse
Protocol: as §1

[3] = tested on: T24 xenograft model; assay: Anti-tumor effect in mouse bladder cancer xenograft model T24; assay type: in vivo, Balb/c Nude mouse; conditions: 20 mg/kg bid, 17-30 days
Protocol: as §1

[4] = tested on: T24 cells; assay: Hypoxia-induced mRNA upregulation of VEGFA and GLUT1 in T24 cells (quantitative PCR); assay type: cell-based; conditions: 72 h, hypoxic (1% O2), Compound 1 at 1.0 μM
Protocol: T24 cells were treated with DMSO or 1.0 μM of Compound 1; control siRNA or siRNA specific for HIF-1α, HIF-2α, for 72 h under normoxic (20% O2) or hypoxic (1% O2) conditions. Total RNA was extracted using RNeasy mini kit (Qiagen, Catalog #74104) and QIAshredder (Qiagen, Catalog #79654). Then RNA was reverse-transcribed into cDNA using Applied Biosystems™ High-Capacity cDNA Reverse Transcription Kit (Applied Biosystems™ cat #4368814). The cDNA was used as templates to examine the mRNA expression of VEGFA and GLUT1 by quantitative polymerase chain reaction (PCR) assays (PowerUp SYBR Green Master Mix by Applied Biosystems™, cat #A25742), with GAPDH serving as control for normalization.

[5] = tested on: nectin-4; conditions: patients who progressed following treatment with chemotherapy and immunotherapy; cited from earlier work

## N#Cc1cc(F)cc(Oc2ccc3c4c2[C@@H](F)C[C@]4(O)C(F)(F)C3(F)F)c1 [Compound 1, 3-fluoro-5-(((1S,2aR)-1,3,3,4,4-pentafluoro-2a-hydroxy-2,2a,3,4-tetrahydro-1H-cyclopenta[cd]inden-7-yl)oxy)benzonitrile]
[1]
  anti-tumor effect in RT112 xenograft model: marginal anti-tumor effect
[2]; 20 mg/kg bid, 17-30 days
  anti-tumor effect in RT4 xenograft model: significant tumor growth inhibition
[2]; RT4 model, 20 mg/kg of Compound 1
  TGI: 44%
[3]
  anti-tumor effect in T24 xenograft model: complete tumor regression
[4]
  GLUT1 mRNA level induced by hypoxia: significantly suppressed
  VEGFA mRNA level induced by hypoxia: significantly suppressed

## Enfortumab vedotin
[5]
  objective response rate: 44%
